# Patent US20060269942A1, “In situ click chemistry method for screening high affinity molecular imaging probes” (priority 2005, published 2006)
# Like-named read-outs stand apart in the source and are kept apart here.
# Assays:
# [1] = biological target: T1, human carbonic anhydrase II (Homo sapiens, UniProt P00918); assay: Titration of human carbonic anhydrase II with DNSA (fluorescence); format: binding; details: enzyme 200 nM in pH 7.4 phosphate buffer, titrated with DNSA; read-out: dissociation constant (Kd) of CA·DNSA
# T1 construct: Carbonic anhydrase II from human erythrocytes; purchased Sigma Aldrich C-6165; host or cells: human erythrocytes (natural source)
# Description: (§1) General. Carbonic anhydrase II from bovine erythrocytes (Sigma-Aldrich, catalog number C2522; lot number 083K9295, 4,014 Wilbur-Anderson units/mg, 90% protein content by Biuret) was used for in situ click chemistry experiments and for the determination of binding constants. We tested the protein by SDS gel electrophoresis and found it to display a single band corresponding to 29-30,000 molecular weight units. Carbonic anhydrase II from human erythrocytes (Sigma Aldrich, catalog number C-6165, 4,260 wilbur-anderson units/mg) was used for the determination of binding affinities for the human enzyme. All fluorescence measurements were performed on a SPECTRA MAX GEMINI fluorescence plate reader at 37° C. […]
# (§2) General. The fluorescence competition assay developed by Whitesides et al. (J. Am. Chem. Soc. 1994, 116, 5057) and J. C. […] The assay is based on the observation that the only fluorescence signal detected at 460 nm upon excitation at 290 nm, an absorption minimum for DNSA, is that of the DNSA·CA complex. With increasing sample concentration the fluorescence intensity due to DNSA·CA decreases as a result of competition with the test compound, allowing the determination of dissociation constants from Scatchard plots. […] The Kd values were determined from Scatchard plots using the equation below as described by Whitesides et.al. [CA·Inh]/[CA]tot·[Inh]=K11inh−K11inh{[CA·Inh]+[CA·DNSA]}/([CA]tot) […]
# [2] = biological target: T2, bovine carbonic anhydrase II (Bos taurus, UniProt P00921); assay: Titration of bovine carbonic anhydrase II with DNSA (fluorescence); format: binding
# T2 construct: Carbonic anhydrase II from bovine erythrocytes; purchased Sigma-Aldrich C2522; host or cells: bovine erythrocytes (natural source)
# T2 sequence (P00921 whole entry): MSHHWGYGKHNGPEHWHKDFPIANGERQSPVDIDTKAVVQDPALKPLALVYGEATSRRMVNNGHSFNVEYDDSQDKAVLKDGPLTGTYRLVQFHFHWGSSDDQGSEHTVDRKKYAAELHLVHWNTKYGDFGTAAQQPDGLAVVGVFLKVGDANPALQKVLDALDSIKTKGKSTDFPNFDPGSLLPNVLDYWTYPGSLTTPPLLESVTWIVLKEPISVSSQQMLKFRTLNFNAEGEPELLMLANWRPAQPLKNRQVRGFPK
# Description: as §1, §2
# [3] = biological target: T3, carbonic anhydrase II (Bos taurus, UniProt P00921); assay: DNSA fluorescence competition binding assay for carbonic anhydrase II; details: in situ hit of FIG. 4 screen; enzyme species not stated at the place (bovine CA-II used for the screen and binding constants)
# T3 construct: Carbonic anhydrase II from bovine erythrocytes; purchased Sigma-Aldrich C2522; host or cells: bovine erythrocytes (natural source)
# T3 sequence (P00921 whole entry): as above
# Description: as §1, §2
Kd [1] [nM],"Kd ([2]; determined by titration experiments, value used in the mass balance, enzyme species not stated, read-out: dissociation constant Kd for DNSA) [nM]","Kd ([2]; enzyme 200 nM in pH 7.4 phosphate buffer, titrated with DNSA, read-out: dissociation constant (Kd) of CA·DNSA) [nM]",Compound,Kd [3] [nM]
425,390,393,CN(C)c1cccc2c(S(N)(=O)=O)cccc12 [DNSA],
,,,CC(C)[C@@H](C(=O)NCc1cc(F)ccn1)n1cc(-c2ccc(S(N)(=O)=O)cc2)nn1 [the product],0.5
